Values of other authors, collected in patent publication US20060110441A1, “Lyophilized liposome formulations and method” (priority 2004, published 2006).
Converted amounts (≈) assume the structure as drawn. Like-named read-outs stand apart in the source and are kept apart here.

Assays:
[1] = not given; remark: listed apart in the source
[2] = hydrated lipid

Row | Compound | LogP | Tm, phase transition temperature [2] | further results
1 | Nc1nc(Nc2ccc(S(N)(=O)=O)cc2)nn1C(=O)c1c(F)cccc1F [1-(2′,6′-difluorobenzoyl)-5-amino-3-(4′-aminosulfonylanilino)-1,2,4-triazole] | around zero |  | water solubility (in words) [1]: very low water solubility
2 | CCCCCCCC/C=C\CCCCCCCC(=O)OC[C@H](COP(=O)(O)OCCN)OC(=O)CCCCCCC/C=C\CCCCCCCC [DOPE, dioleoyl phosphoethanolamine] |  | −16 °C | 
3 | CCCCCCCC/C=C\CCCCCCCC(=O)OC[C@H](COP(=O)(O)OCC(O)CO)OC(=O)CCCCCCC/C=C\CCCCCCCC (some centres unmarked) [DOPG, dioleoyl phosphatidylglycerol] |  | −18 °C | 
4 | CCCCCCCCCCCCCCCCCC(=O)OC[C@H](COP(=O)([O-])OCC[N+](C)(C)C)OC(=O)CCCCCCCCCCCCCCCCC [DSPC, distearoyl phosphatidylcholine] |  | 55 °C | 
5 | CCCCCCCC/C=C\CCCCCCCC(=O)O[C@H](COC(=O)CCCCCCCCCCCCCCC)COP(=O)([O-])OCC[N+](C)(C)C [POPC, palmitoyloleoyl phosphatidylcholine] |  | −2 °C | Tm, phase transition temperature ([2]; listed as palmitoyl oleoyl PC): −5 to 3 °C
6 | C[C@H]1C[C@H]2[C@@H]3CCC4=CC(=O)C=C[C@]4(C)[C@@]3(F)[C@@H](O)C[C@]2(C)[C@@]1(O)C(=O)CO [betamethasone] | 1.9 |  | 
7 | CCC/C=C/C=C/C(=O)O[C@H]1/C(=C/C(=O)OC)C[C@H]2C[C@H]([C@@H](C)O)OC(=O)C[C@H](O)C[C@@H]3C[C@H](OC(C)=O)C(C)(C)[C@](O)(C[C@@H]4C/C(=C/C(=O)OC)C[C@H](/C=C/C(C)(C)[C@]1(O)O2)O4)O3 [bryostatin-1] | 5.4 |  | 
8 | CN(C)CC/C=C1/c2ccccc2Sc2ccc(Cl)cc21 [chlorprothixene] | 6.1 |  | 
9 | C[C@]12C[C@H](O)[C@H]3[C@@H](CCC4=CC(=O)CC[C@@]43C)[C@@H]1CC[C@@H]2C(=O)CO [corticosterone] | 1.8 |  | 
10 | CCCCC/C=C\C/C=C\CCCCCCCC(=O)OC[C@H](COP(=O)(O)OCCN)OC(=O)CCCCCCC/C=C\C/C=C\CCCCC [dilinoleoyl phosphoethanolamine] |  | −40 °C | 
11 | CCCCCCCC/C=C\CCCCCCCC(=O)OC[C@H](COP(=O)(O)O)OC(=O)CCCCCCC/C=C\CCCCCCCC [dioleoyl PA] |  | −8 °C | 
12 | CCCCCCCC/C=C\CCCCCCCC(=O)OC[C@H](COP(=O)(O)OC[C@H](N)C(=O)O)OC(=O)CCCCCCC/C=C\CCCCCCCC [dioleoyl PS] |  | −11 °C | 
13 | CCCCCCCCCCCCCCCCCC(=O)OC[C@H](COP(=O)(O)O)OC(=O)CCCCCCCCCCCCCCCCC [distereoyl PA] |  | 75 °C | 
14 | CCCCCCCCCCCCCCCCCC(=O)OC[C@H](COP(=O)(O)OCC(O)CO)OC(=O)CCCCCCCCCCCCCCCCC (some centres unmarked) [distereoyl PG] |  | 55 °C | 
15 | CCCCCCCCCCCCCCCCCC(=O)OC[C@H](COP(=O)(O)OC[C@H](N)C(=O)O)OC(=O)CCCCCCCCCCCCCCCCC [distereoyl PS] |  | 68 °C | 
16 | CCCCCCCCCCCCCCCCCC(=O)OC[C@H](COP(=O)(O)OCCN)OC(=O)CCCCCCCCCCCCCCCCC [disteroyl phosphoethanolamine] |  | 74 °C | 
17 | CC(=O)O[C@@]12CO[C@@H]1C[C@H](O)[C@@]1(C)C(=O)[C@H](O)C3=C(C)[C@@H](OC(=O)[C@H](O)[C@@H](NC(=O)OC(C)(C)C)c4ccccc4)C[C@@](O)([C@@H](OC(=O)c4ccccc4)[C@H]21)C3(C)C [docetaxel] | 6.6 |  | 
18 | COc1cc([C@@H]2c3cc4c(cc3[C@@H](O[C@@H]3O[C@@H]5CO[C@@H](C)O[C@H]5[C@H](O)[C@H]3O)[C@H]3COC(=O)[C@H]23)OCO4)cc(OC)c1O [etopside, reference compound] |  |  | aqueous solubility [1]: 30 µg/mL (≈ 51 µM)
19 | O=c1[nH]cc(F)c(=O)[nH]1 [fluorouracil] | −0.8 |  | 
20 | CCCCCCCC/C=C\CCCCCCCC(=O)OC[C@H](COP(=O)([O-])OCC[N+](C)(C)C)OC(=O)CCCCCCCCCCCCCCC [oleoyl palmitoyl PC, oleolyl palmitoyl phosphatidylcholine] |  | −9 °C | 
21 | CCCCCCCC/C=C\CCCCCCCC(=O)OC[C@H](COP(=O)([O-])OCC[N+](C)(C)C)OC(=O)CCCCCCCCCCCCCCCCC [oleoyl stearyol PC, oleoyl stearoyl phosphatidylcholine] |  | 5 to 13 °C | 
22 | CC(=O)O[C@H]1C(=O)[C@@]2(C)[C@H]([C@H](OC(=O)c3ccccc3)[C@]3(O)C[C@H](OC(=O)[C@H](O)[C@@H](NC(=O)c4ccccc4)c4ccccc4)C(C)=C1C3(C)C)[C@]1(OC(C)=O)CO[C@@H]1C[C@@H]2O [paclitaxel] | 7.4 |  | 
23 | CCCCCCCC/C=C\CCCCCCCC(=O)O[C@H](COC(=O)CCCCCCCCCCCCCCCCC)COP(=O)([O-])OCC[N+](C)(C)C [stearyol oleoyl PC, stearyoyl oleoyl phosphatidylcholine] |  | 8 to 13 °C | 
24 | palmitoyl docosahexaenoyl PC |  | −27 °C | 
